Test [1] concerns hearing loss. Briefly: Treatment of hearing loss in a patient, one ear treated, other ear untreated. The class given is in vivo, human. The text has this:
A patient is diagnosed with hearing loss of the same magnitude in both ears. A composition comprising the calcium channel blocker nifedipine is directly applied to the external ear space of one ear while the other ear is left untreated. […] A patient is diagnosed with hearing loss of the same magnitude in both ears. A composition comprising the ACE inhibitor enalapril is directly applied to the external ear space of one ear while the other ear is left untreated. […] A patient is diagnosed with hearing loss of the same magnitude in both ears. A composition comprising the angiotensin receptor blocker losartan is directly applied to the external ear space of one ear while the other ear is left untreated. […] A patient is diagnosed with hearing loss of the same magnitude in both ears. A composition comprising the calcium channel blocker nifedipine is administered by injection into the middle ear space of one ear while the other ear is left untreated. […] A patient is diagnosed with hearing loss of the same magnitude in both ears. A composition comprising the ACE inhibitor enalapril is administered by injection into the middle ear space of one ear while the other ear is left untreated. […] A patient is diagnosed with hearing loss of the same magnitude in both ears. A composition comprising the angiotensin receptor blocker losartan is administered by injection into the middle ear space of one ear while the other ear is left untreated. […] A patient is diagnosed with hearing loss of the same magnitude in both ears. A composition comprising the calcium channel blocker nifedipine is administered by injection into the inner ear space of one ear while the other ear is left untreated. […] A patient is diagnosed with hearing loss of the same magnitude in both ears. A composition comprising the ACE inhibitor enalapril is administered by injection into the inner ear space of one ear while the other ear is left untreated. […] A patient is diagnosed with hearing loss of the same magnitude in both ears. A composition comprising the angiotensin receptor blocker losartan is administered by injection into the inner ear space of one ear while the other ear is left untreated.

Test [2] relates to hearing loss. Briefly: Prevention of recurrence of hearing loss in a successfully treated patient, one ear treated, other ear untreated. The settings on record: patient after successful treatment, untreated side again exhibits symptoms. The class given is in vivo, human. The text has this:
A composition comprising the calcium channel blocker nifedipine is directly applied to the external ear space of one ear while the other ear is left untreated. […] A composition comprising the ACE inhibitor enalapril is directly applied to the external ear space of one ear while the other ear is left untreated. […] A composition comprising the angiotensin receptor blocker losartan is directly applied to the external ear space of one ear while the other ear is left untreated. […] A composition comprising the calcium channel blocker nifedipine is administered by injection into the middle ear space of one ear while the other ear is left untreated. […] A composition comprising the ACE inhibitor enalapril is administered by injection into the middle ear space of one ear while the other ear is left untreated. […] A composition comprising the angiotensin receptor blocker losartan is administered by injection into the middle ear space of one ear while the other ear is left untreated. […] A composition comprising the calcium channel blocker nifedipine is administered by injection into the inner ear space of one ear while the other ear is left untreated. […] A composition comprising the ACE inhibitor enalapril is administered by injection into the inner ear space of one ear while the other ear is left untreated. […] A composition comprising the angiotensin receptor blocker losartan is administered by injection into the inner ear space of one ear while the other ear is left untreated.

The mark [3] stands for this setting: composition directly applied to the external ear space of one ear.
Where [4] appears, read: composition injected into the inner ear space of one ear.
Where [5] appears, read: composition injected into the middle ear space of one ear.

As to `CCOC(=O)[C@H](CCc1ccccc1)N[C@@H](C)C(=O)N1CCC[C@H]1C(=O)O` [enalapril], the “hearing loss of treated ear compared to untreated ear” value in the test with hearing loss [1] (setting [3]), with hearing loss [1] (setting [4]) and in the test with hearing loss [1] (setting [5]) was “reduced hearing loss” in each case. Besides, the “level of hearing of treated ear after a period of time (recurrence of hearing loss)” value in the test on hearing loss [2] (setting [3]), in the test on hearing loss [2] (setting [4]) and with hearing loss [2] (setting [5]) was “maintained the level of hearing” in each case.

For `CCCCc1nc(Cl)c(CO)n1Cc1ccc(-c2ccccc2-c2nn[nH]n2)cc1` [losartan], the “hearing loss of treated ear compared to untreated ear” value with hearing loss [1] (setting [3]), in the test with hearing loss [1] (setting [4]) and in the test on hearing loss [1] (setting [5]) was “reduced hearing loss” throughout. Besides, the “level of hearing of treated ear after a period of time (recurrence of hearing loss)” value with hearing loss [2] (setting [3]), with hearing loss [2] (setting [4]) and with hearing loss [2] (setting [5]) was “maintained the level of hearing” in each case.

Values taken from patent publication US20210322395A1, “METHOD TO PREVENT AND TREAT HEARING LOSS BY CALCIUM CHANNEL BLOCKERS, ANGIOTENSIN CONVERTING ENZYME INHIBITORS, AND ANGIOTENSIN RECEPTOR BLOCKERS” (priority 2018, published 2021).
